Data on one molecule can be found in publication PMC11796312, “Multifunctional, Fluorene‐Based Modulator of Cholinergic and GABAergic Neurotransmission as a Novel Drug Candidate for Palliative Treatment of Alzheimer's Disease” (Angewandte Chemie (International Ed. in English), 2024).

Data set [1] relates to BuChE. To be noted: 1 or 5 µM compound (printed '1 or 5 M'), vs DMSO.
Data set [2] concerns the target T1, human norepinephrine transporter (Homo sapiens, UniProt P23975).
T1 construct: expressed in transfected cells
The experiment in a line: Norepinephrine Transporter Competition Binding Assay. To be noted: NET Ki. As for the experimental part:
Norepinephrine Transporter Competition Binding Assay
Preparation of solutions of test and reference compounds
First, 10 mM stock solutions of tested compounds were prepared in DMSO. Serial dilutions of compounds were prepared in a 96-well microplate in an assay buffer using the automated pipetting system epMotion 5070. Each compound was tested in 8 concentrations ranging from 10^-3 to 10^-10 M (final concentration).
Radioligand binding was performed using membranes from the MDCK cell line stably transfected with the human norepinephrine transporter. All assays were carried out in duplicates. Volumes of 50 µl working solution of the tested compounds, 50 µl [ 3H]- Nisoxetine (spec. act. 80.2 Ci/mmol, final concentration 4 nM), and 150 µl diluted membranes (5 µg protein per well) prepared in assay buffer (50 mM Tris -HCl, pH 7.4; 120 mM NaCl; 5 mM KCl) were transferred to polypropylene 96-well microplate using 96-wells pipetting station Rainin Liquidator. Desipramine (10 μM) was used to define nonspecific binding. The microplate was covered with sealing tape, mixed, and incubated for 60 minutes at 4 °C. The reaction was terminated by rapid filtration through GF/B filter mate presoaked with 0.5% polyethyleneimine for 30 minutes. Five rapid washes with 300 µl 50 mM Tris buffer (4 °C, pH 7.4) were performed using a 96 -well FilterMate harvester. The filter mates were dried at 37 °C in the forced air fan incubator, and then, solid scintillator MeltiLex B/HS was melted on filter mates at 90 °C for 4 minutes. Radioactivity was counted in the MicroBeta2 scintillation counter (PerkinElmer). Data were fitted to a one -site curve-fitting equation with Prism 8.0 (GraphPad Software), and Ki values were estimated from the […]
Result of Norepinephrine Transporter Competition Binding Assay
Table S9. Results of binding to norepinephrine transporter (NET) of tested compounds COMPOUND Ki [nM] pKi Ki [nM] pKi Ki [nM] pKi

The nature of data set [3]: Stability in plasma (UHPLC-MS method validation). Format: in vitro ADME. Conditions: rat plasma. The text has this: UHPLC-MS method for pharmacokinetics study
Ultra high-performance liquid chromatography system consisting of Ultimate 3000 RS pump Dionex (Thermo Scientific, San Jose, CA, USA) coupled with high-resolution mass spectrometer with orbitrap analyzer (Q Exactive Focus, Thermo Scientific, San Jose, CA, USA) was used in quantitative analyses of 6 in plasma and brain homogenate. According to the EMA[43] and FDA[42] guidelines on Bioanalytical method validation, the method was fully validated for plasma and partially for brain homogenate. All the evaluated parameters met the […]
Table S12. Summary of validation results (precision and accuracy) in plasma for five different concentrations - limit of quantitation(LLOQ), low (QC A), mid (QC B), high (QC C) a dilution (QC D) level. […]
Stability evaluation in rat plasma as deviation from the reference value (100%)

In data set [4] the test system is mice treated with scopolamine. The experiment in a line: Barnes maze (BM) task. Format: in vivo, C57BL/6J mice. The procedure: Animals and housing conditions
In all pharmacodynamic in vivo experiments, except for the Barnes maze (BM) task, adult male Albino Swiss (CD-1) mice weighing between 18 and 22 g and purchased from the Animal Breeding Farm of the Faculty of Pharmacy, Jagiellonian University Medical College were used. In BM task, C57BL/6J mice of the same weight (Animalab, Poland) were used.
Animals were housed in cages (10 mice per cage) at a constant temperature of 22 ± 2 °C, humidity of 55 ± 10%, and a light/dark (12:12) cycle (lights on at 7 AM). Before the experiments, the animals had unlimited access to food and water. Specified conditions for the maintenance of mice were ensured throughout the experiments, including tree bedding (Transwior, Poland) and cage enrichment (tunnels, nesting material, wooden igloos, etc.). For the behavioral test, the mice were selected randomly; each group consisted of 7-12 mice. The experiments were performed between 9 AM and 3 PM. After in vivo tests, the animals were […]
Ethical approval statement
The procedures for the maintenance and treatment of laboratory animals were approved by the 1st Local Ethics Committee of the Jagiellonian University in Krakow (Approvals No.
524/2021, 618/2022), and the treatment of animals was in full accordance with ethical […]
Drugs and dose selection for the in vivo tests
For in vivo assays 6 was suspended in 1% Tween 80 (Sigma Aldrich, Poland) and administered intraperitoneally (i.p.) 60 min before the acquisition trial of the passive avoidance (PA) task, BM task and 60 min before the forced swim test (FST), four-plate test (FPT) and elevated plus maze (EPM) test. Doses 10 mg/kg and 30 mg/kg were the starting […]
doses for behavioral assays. Lower doses were also assessed if at least one of them was […]
Scopolamine hydrobromide used at the dose of 1 mg/kg for the induction of learning and memory deficits was supplied by Sigma Aldrich (Poland). The dose of scopolamine was chosen based on our previous studies[44,45] and available literature data.[46] […]
Effect on spatial learning and memory – Barnes maze task
Spatial learning and memory in mice were also assessed using the BM task.[47] This task was performed with the BM apparatus (Panlab-Harvard Apparatus, Spain). It consists of a circular, dry, open platform surface equipped with 18 holes around the perimeter of the platform and a small dark recessed chamber located under one of them. Visual extra-maze cues (pictures of colored geometric figures with contrasting backgrounds placed at a distance of 1 m from the platform) were provided to facilitate learning. A weak aversive stimulus (light 600 lx) was applied to increase the animals’ motivation to escape from the circular platform.
The spatial acquisition trial was performed during the first 4 days of the experiment. On the first day of the test, an additional adaptation period preceded a proper trial. In this phase, mice were individually placed in a cylindrical black start chamber in the middle of the circular maze. Ten seconds later, the mouse was released from the start chamber, the light was turned on, and the animal was gently guided to the escape box (a small dark recessed chamber under the BM platform), where it remained for the next 2 min. This phase was not preceded by drug […]
In the spatial acquisition phase, each mouse was subjected to four trials daily, keeping 15-min intervals between each trial. […]

Setting [5] is: 10 mg/kg i.p. + scopolamine, vs scopolamine control.
The mark [6] stands for this setting: 10 mg/kg, retention trial, vs scopolamine control.

A word on the Ki: it is the equilibrium dissociation constant of an inhibitor or competing ligand from its target.

Molecules are shown by their SMILES. Entries after “also recorded” stand apart in the source; their conditions may differ.

T1 sequence (P23975 whole entry): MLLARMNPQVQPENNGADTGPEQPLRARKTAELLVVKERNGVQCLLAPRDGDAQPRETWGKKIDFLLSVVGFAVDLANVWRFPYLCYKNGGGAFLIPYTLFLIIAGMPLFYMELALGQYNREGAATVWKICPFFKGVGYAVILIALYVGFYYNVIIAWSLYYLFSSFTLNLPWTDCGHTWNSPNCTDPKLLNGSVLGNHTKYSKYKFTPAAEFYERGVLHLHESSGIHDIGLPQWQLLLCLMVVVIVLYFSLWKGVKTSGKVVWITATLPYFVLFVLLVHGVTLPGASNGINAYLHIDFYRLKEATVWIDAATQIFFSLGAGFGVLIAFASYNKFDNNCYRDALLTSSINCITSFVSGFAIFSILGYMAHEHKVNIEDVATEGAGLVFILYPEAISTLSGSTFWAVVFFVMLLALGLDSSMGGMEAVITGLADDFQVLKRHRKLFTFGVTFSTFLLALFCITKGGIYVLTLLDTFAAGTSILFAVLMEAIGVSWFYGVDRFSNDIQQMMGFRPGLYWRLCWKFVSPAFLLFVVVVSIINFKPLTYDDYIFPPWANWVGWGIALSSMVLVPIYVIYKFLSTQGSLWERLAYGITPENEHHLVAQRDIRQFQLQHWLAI

Take `O[C@H](CNCC1CC1)[C@H](Cc1ccccc1)NC1c2ccccc2-c2ccccc21` [Compound 6]: in data set [1], the “Melting temperature (Tm) of BuChE” value is “increased Tm of BuChE”. The inhibitory constant (Ki) in data set [2] was found to be 0.837 µM; in data set [2] (third Ki column (likely the mean)), 0.774 µM; in data set [2] ([3H]-Nisoxetine), 0.714 µM. The “Autosampler stability % (24h)” value in data set [3] (QC B (33,50 ng/mL), vs reference value 100%) was 97,6 ± 1,5%; in data set [3] (QC C (452,73 ng/mL)), 94,6 ± 2,5%. For the same molecule, the “Freeze-thaw stability % (3 cycles)” value in data set [3] (QC B) was 95,8% ± 4,0; in data set [3] (QC C) it was 102,0 ± 4,7%. Further, the “Long-term stability % (3 month)” value is 109,9 ± 0,5% in data set [3] (QC B) and 105,7 ± 2,2% in data set [3] (QC C). In addition, the “latency to target, acquisition trial” value in data set [4] (setting [5]) is listed as “Statistically significant differences were also observed on day 4; also recorded: statistically significantly reduced latency to target”. The “number of errors, acquisition phase (days 1-4)” value in data set [4] (setting [5]) was “no statistically significant differences in the number of errors”. In addition, the “number of errors, day 5” value in data set [4] (10 mg/kg, drug-off trial) is given as “no significant differences among groups”. The “latency to former target location, day 12” value in data set [4] (setting [6]) is “A similar effect was noted; also recorded: significantly shortened the latency to former target location”. Further, the “number of errors, day 12” value in data set [4] (setting [6]) was “significantly reduced number of errors made; also recorded: reduced the number of errors”.
